Read-outs that look alike come from different tables or passages of the source.
Columns and labels:
Shattercane (SHCA) = assay type: in vivo
Corn [1] = tested on: Corn
Giant foxtail (GIFT) = assay: whole plant or invertebrate; assay type: in vivo
Velvetleaf (VELE) [2] = assay: whole plant or invertebrate; assay type: in vivo, Abutilon theophrasti
Corn [3] = tested on: Corn; remark: listed apart in the source
Velvetleaf (VELE) [4] = assay type: in vivo, Abutilon theophrasti
[5] = […], observed 9 days later (Table 29)
[6] = […], observed 9 days later (Table 30)
[7] = […], PPI, 13 days after PPI (Table 31)
[8] = […], observed 7 days after POE (Table 35)
[9] = […], observed 7 days after POE (Table 36)
[10] = […], observed 8 days later (Table 32)
[11] = […], observed 8 days later (Table 33)
[12] = […], PPI, 14 days after PPI (Table 34)
[13] = […], antidote number given but rate '-' (Table 33)
[14] = […], antidote number given but rate '-', 14 days after PPI (Table 34)
[15] = Table 50, Biocide No. 8 alone 8.96 kg/Ha PPI, no herbicide, no antidote
[16] = Table 51, Biocide No. 8 alone 8.96 kg/Ha PPI, observed 13 days after treatment

Row | Structure (SMILES) | % Inhibition SHCA (Shattercane (SHCA); [5]) [%] | % Inhibition SHCA (Shattercane (SHCA); [6]) [%] | % Inhibition Corn (Corn [1]; [5]) [%] | % Inhibition Corn (Corn [1]; [6]) [%] | % Inhibition GIFT (Giant foxtail (GIFT); [7]) [%] | % Inhibition VELE (Velvetleaf (VELE) [2]; [7]) [%] | % Inhibition Corn (Corn [3]; [7]) [%] | % Inhibition VELE (Velvetleaf (VELE) [4]; [5]) [%] | % Inhibition VELE (Velvetleaf (VELE) [4]; [6]) [%] | % Inhibition SHCA (Shattercane (SHCA); [10]) [%] | % Inhibition SHCA (Shattercane (SHCA); [11]) [%] | % Inhibition Corn (Corn [1]; [10]) [%] | % Inhibition Corn (Corn [1]; [11]) [%] | % Inhibition GIFT (Giant foxtail (GIFT); [12]) [%] | % Inhibition VELE (Velvetleaf (VELE) [2]; [12]) [%] | % Inhibition Corn (Corn [3]; [12]) [%] | % Inhibition VELE (Velvetleaf (VELE) [4]; [10]) [%] | % Inhibition VELE (Velvetleaf (VELE) [4]; [11]) [%] | also measured
1 | O=C(C(Cl)Cl)N1CC(c2ccco2)OC1c1ccccc1 (centres unmarked) [compound 36] | 75 | 35 | 45 | 45 | 75 | 90 | 60 | 100 | 80 |  |  |  |  |  |  |  |  |  | 
2 | CCCCOC(=O)c1sc(Cl)nc1C(F)(F)F [compound 61] |  |  |  |  |  |  |  |  |  |  |  |  |  |  |  |  |  |  | % Inhibition SHCA (Shattercane (SHCA); [8]): 65%; % Inhibition SHCA (Shattercane (SHCA); [9]): 35%; % Inhibition Corn (Corn [1]; [8]): 35%; % Inhibition Corn (Corn [1]; [9]): 55%; % Inhibition GIFT (Giant foxtail (GIFT); in vivo): 70%; % Inhibition VELE (Velvetleaf (VELE) [2]; in vivo): 90%; % Inhibition Corn (Corn [3]; in vivo): 60%; % Inhibition VELE (Velvetleaf (VELE) [4]; [8]): 75%; % Inhibition VELE (Velvetleaf (VELE) [4]; [9]): 65%
3 | CC(C)(C)OC(=O)COC1c2ccccc2CCc2ccccc21 [compound 45] |  |  |  |  |  |  |  |  |  | 85 | 25 | 65 | 65 | 75 | 90 | 70 | 80 | 70 | 
4 | CC(C)(C#N)OC(=O)COC(c1ccccc1)c1ccccc1 [compound 59] |  |  |  |  |  |  |  |  |  | 80 |  | 15 |  |  |  |  | 85 |  | % Inhibition SHCA (Shattercane (SHCA); [13]): 0%; % Inhibition Corn (Corn [1]; [13]): 0%; % Inhibition GIFT (Giant foxtail (GIFT); [14]): 30%; % Inhibition VELE (Velvetleaf (VELE) [2]; [14]): 20%; % Inhibition Corn (Corn [3]; [14]): 0%; % Inhibition VELE (Velvetleaf (VELE) [4]; [13]): 0%
5 | Cc1cccc(C)c1C(OCC(=O)O)c1c(C)cccc1C [compound 56] |  |  |  |  |  |  |  |  |  | 75 | 30 | 60 | 60 | 75 | 85 | 65 | 85 | 75 | 
6 | CC1(C)OC(c2cccnc2)CN1C(=O)C(Cl)Cl (centres unmarked) [compound 27] | 75 | 30 | 25 | 30 | 75 | 85 | 30 | 85 | 75 |  |  |  |  |  |  |  |  |  | 
7 | O=C(O)COC(c1ccccc1)c1cccc(C(F)(F)F)c1 (centres unmarked) [compound 49] |  |  |  |  |  |  |  |  |  | 70 | 30 | 45 | 70 | 65 | 100 | 55 | 90 | 80 | 
8 | CC1(C)OC(c2cc3ccccc3o2)CN1C(=O)C(Cl)Cl (centres unmarked) [compound 38] | 80 | 25 | 20 | 45 | 70 | 85 | 50 | 95 | 70 |  |  |  |  |  |  |  |  |  | 
9 | Cn1cccc1C1CN(C(=O)C(Cl)Cl)C(C)(C)O1 (centres unmarked) [compound 35] | 75 | 30 | 20 | 35 | 70 | 80 | 40 | 90 | 65 |  |  |  |  |  |  |  |  |  | 
10 | CC1Cc2ccccc2C(C)N1C(=O)C(Cl)Cl (centres unmarked) [compound 26] | 70 | 35 | 40 | 50 | 75 | 80 | 65 | 90 | 75 |  |  |  |  |  |  |  |  |  | 
11 | COC(=O)ON=C(N)COc1cccc2cccnc12 [compound 76] |  |  |  |  |  |  |  |  |  |  |  |  |  |  |  |  |  |  | % Inhibition SHCA (Shattercane (SHCA); [8]): 65%; % Inhibition SHCA (Shattercane (SHCA); [9]): 30%; % Inhibition Corn (Corn [1]; [8]): 55%; % Inhibition Corn (Corn [1]; [9]): 55%; % Inhibition GIFT (Giant foxtail (GIFT); in vivo): 70%; % Inhibition VELE (Velvetleaf (VELE) [2]; in vivo): 90%; % Inhibition Corn (Corn [3]; in vivo): 65%; % Inhibition VELE (Velvetleaf (VELE) [4]; [8]): 80%; % Inhibition VELE (Velvetleaf (VELE) [4]; [9]): 70%
12 | C[n+]1cccc(C2CN(C(=O)C(Cl)Cl)C(C)(C)O2)c1 (centres unmarked) [compound 37] | 80 | 35 | 65 | 50 | 80 | 85 | 60 | 90 | 75 |  |  |  |  |  |  |  |  |  | 
13 | N#CCCOC(=O)COC(c1ccccc1)c1ccccc1 [compound 52] |  |  |  |  |  |  |  |  |  | 70 | 25 | 20 | 45 | 65 | 85 | 40 | 85 | 75 | 
14 | C=CCC(C)(C#N)Sc1ccc(C(C)C)cc1 (centres unmarked) [compound 75] |  |  |  |  |  |  |  |  |  |  |  |  |  |  |  |  |  |  | % Inhibition SHCA (Shattercane (SHCA); [8]): 70%; % Inhibition SHCA (Shattercane (SHCA); [9]): 40%; % Inhibition Corn (Corn [1]; [8]): 70%; % Inhibition Corn (Corn [1]; [9]): 65%; % Inhibition GIFT (Giant foxtail (GIFT); in vivo): 75%; % Inhibition VELE (Velvetleaf (VELE) [2]; in vivo): 85%; % Inhibition Corn (Corn [3]; in vivo): 75%; % Inhibition VELE (Velvetleaf (VELE) [4]; [8]): 85%; % Inhibition VELE (Velvetleaf (VELE) [4]; [9]): 75%
15 | CC(C)(C)c1ccccc1SCCC#N [compound 74] |  |  |  |  |  |  |  |  |  |  |  |  |  |  |  |  |  |  | % Inhibition SHCA (Shattercane (SHCA); [8]): 80%; % Inhibition SHCA (Shattercane (SHCA); [9]): 20%; % Inhibition Corn (Corn [1]; [8]): 65%; % Inhibition Corn (Corn [1]; [9]): 60%; % Inhibition GIFT (Giant foxtail (GIFT); in vivo): 85%; % Inhibition VELE (Velvetleaf (VELE) [2]; in vivo): 90%; % Inhibition Corn (Corn [3]; in vivo): 70%; % Inhibition VELE (Velvetleaf (VELE) [4]; [8]): 80%; % Inhibition VELE (Velvetleaf (VELE) [4]; [9]): 70%
16 | CCCSP(=O)(OCC)SCCC [Biocide No. 8, O-Ethyl-S,S-dipropyl phosphorothioate, reference compound] |  |  |  |  |  |  |  |  |  |  |  |  |  |  |  |  |  |  | % Inhibition SHCA (Shattercane (SHCA); [15]): 85%; corn injury (Corn [1]; MOCAP alone at 8.96 kg/ha, Example 51): corn stunting, leaf malformations and stand loss; % Inhibition Corn (Corn [1]; [15]): 30%; % Inhibition GIFT (Giant foxtail (GIFT); [16]): 90%; % Inhibition VELE (Velvetleaf (VELE) [2]; [16]): 20%; corn injury (Corn [3]; MOCAP applied alone, PPI, Example 52): significant corn injury; % Inhibition Corn (Corn [3]; [16]): 30%; % Inhibition VELE (Velvetleaf (VELE) [4]; [15]): 15%
17 | O=C(O)COC(c1ccccc1)c1ccccc1 [compound 80] |  |  |  |  |  |  |  |  |  | 80 | 35 | 20 | 55 | 65 | 100 | 40 | 85 | 75 | 
18 | [O-][n+]1ccccc1Sc1nc(Cl)c(Cl)c(Cl)c1Cl [compound 70] |  |  |  |  |  |  |  |  |  |  |  |  |  |  |  |  |  |  | % Inhibition SHCA (Shattercane (SHCA); [8]): 70%; % Inhibition SHCA (Shattercane (SHCA); [9]): 25%; % Inhibition Corn (Corn [1]; [8]): 70%; % Inhibition Corn (Corn [1]; [9]): 65%; % Inhibition GIFT (Giant foxtail (GIFT); in vivo): 70%; % Inhibition VELE (Velvetleaf (VELE) [2]; in vivo): 95%; % Inhibition Corn (Corn [3]; in vivo): 75%; % Inhibition VELE (Velvetleaf (VELE) [4]; [8]): 90%; % Inhibition VELE (Velvetleaf (VELE) [4]; [9]): 85%
19 | CNC(=O)COC(c1ccccc1)c1ccccc1 [compound 42] |  |  |  |  |  |  |  |  |  | 75 | 30 | 70 | 60 | 70 | 90 | 75 | 90 | 70 | 

From patent EP0565593B1, “REDUCING PESTICIDAL INTERACTIONS IN CROPS” (priority 1990, dated 1992)
